The text below walks through data of PMC11295495 (Neuropharmacology, 2023).

In assay [1] the target is T1, a9a10 nAChR (Homo sapiens, UniProt Q9GZZ6+Q9UGM1). Kind of assay: two-electrode voltage-clamp in Xenopus oocytes, inhibition of […] ACh responses. Type of assay: cell-based. Background: Two-electrode voltage clamp is typically applied to oocytes expressing channels or transporters.
For assay [2], the target named is a9 nAChR (Homo sapiens, UniProt Q9UGM1). Described as above. Type of assay: cell-based.
Sequence of a9 nAChR (Q9UGM1 23-479): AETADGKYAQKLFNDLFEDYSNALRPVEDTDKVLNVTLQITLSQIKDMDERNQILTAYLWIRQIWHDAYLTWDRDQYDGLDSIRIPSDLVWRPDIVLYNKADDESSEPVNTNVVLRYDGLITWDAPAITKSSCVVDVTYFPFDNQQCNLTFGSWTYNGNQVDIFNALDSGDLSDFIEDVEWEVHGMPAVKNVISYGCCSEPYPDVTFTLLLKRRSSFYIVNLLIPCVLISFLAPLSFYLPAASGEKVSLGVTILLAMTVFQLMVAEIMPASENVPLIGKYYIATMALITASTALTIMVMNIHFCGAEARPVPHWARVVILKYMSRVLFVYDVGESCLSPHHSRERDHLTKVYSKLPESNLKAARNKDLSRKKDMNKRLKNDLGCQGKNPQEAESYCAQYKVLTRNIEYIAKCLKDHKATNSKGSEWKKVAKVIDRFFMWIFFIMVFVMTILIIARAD
In assay [3] the target is T1, a9a10 nAChR. Described as above. The class given is cell-based. This is another data set of the same source.
The target of assay [4] is a7 nAChR (Homo sapiens, UniProt P36544). Kind of assay: cell-based.
Sequence of a7 nAChR (P36544 23-502): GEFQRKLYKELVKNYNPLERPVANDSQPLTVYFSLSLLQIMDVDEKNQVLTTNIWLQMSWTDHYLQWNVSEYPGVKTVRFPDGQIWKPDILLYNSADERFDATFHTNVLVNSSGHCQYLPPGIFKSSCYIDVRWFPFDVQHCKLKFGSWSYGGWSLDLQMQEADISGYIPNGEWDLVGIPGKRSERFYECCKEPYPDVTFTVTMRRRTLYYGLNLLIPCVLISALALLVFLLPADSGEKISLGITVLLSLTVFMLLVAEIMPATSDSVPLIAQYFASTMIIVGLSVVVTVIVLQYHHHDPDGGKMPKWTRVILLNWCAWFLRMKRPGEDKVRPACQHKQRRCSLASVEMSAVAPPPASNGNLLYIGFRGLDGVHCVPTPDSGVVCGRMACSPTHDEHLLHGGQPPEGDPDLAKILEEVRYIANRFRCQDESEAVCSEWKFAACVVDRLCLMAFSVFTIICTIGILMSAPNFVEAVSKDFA

Where two headings read alike, the source gives them in different places.

T1 sequence (Q9UGM1 23-479): as the sequence (Q9UGM1 23-479) above
T1 sequence (Q9GZZ6 25-450): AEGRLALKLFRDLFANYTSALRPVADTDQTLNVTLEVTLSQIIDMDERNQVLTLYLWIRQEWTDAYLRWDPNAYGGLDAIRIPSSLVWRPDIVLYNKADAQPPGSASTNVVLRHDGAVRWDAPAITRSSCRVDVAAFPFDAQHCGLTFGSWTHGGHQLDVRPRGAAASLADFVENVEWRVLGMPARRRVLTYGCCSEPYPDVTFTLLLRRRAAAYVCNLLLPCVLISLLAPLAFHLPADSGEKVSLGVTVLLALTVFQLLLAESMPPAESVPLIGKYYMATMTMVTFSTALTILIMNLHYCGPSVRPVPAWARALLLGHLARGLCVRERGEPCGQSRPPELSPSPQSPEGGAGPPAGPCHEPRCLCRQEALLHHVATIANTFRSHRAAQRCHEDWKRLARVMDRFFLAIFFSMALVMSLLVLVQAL

Broadly, the IC50 is the concentration that inhibits the measured activity by half. Read a low IC50 as greater potency. In assay [1], `CC[N+]1(CC)CCN(c2cccc(C#N)c2)CC1` [mCN-diEPP, 4-(3-cyanophenyl)-1,1-diethylpiperazin-1-ium] registered a concentration for half-maximal inhibition (IC50) of 17100 ± 1540 nM.

Regarding `CCN1C[C@]2(COC(=O)c3ccccc3N3C(=O)C[C@H](C)C3=O)CC[C@H](OC)[C@@]34[C@@H]5C[C@H]6[C@H](OC)[C@@H]5[C@](O)(C[C@@H]6OC)[C@@](O)([C@@H](OC)[C@H]23)[C@@H]14` [methyllycaconitine], the IC50 in assay [2] was determined as 190 ± 20 nM; in assay [3], 240 ± 130 nM; in assay [4], 120 ± 50 nM.

`CN1CCC[C@H]1c1cccnc1` [nicotine]: the IC50 in assay [1] worked out at 437000 ± 73000 nM.
